The values below come from paper PMC7663056, “Crystal Structure and Inhibitor Identifications Reveal Targeting Opportunity for the Atypical MAPK Kinase ERK3” (International Journal of Molecular Sciences, 2020).

Broadly, the IC50 is the point on the concentration scale where inhibition reaches its midpoint. A lower IC50 goes with greater potency in that assay. Broadly, the Kd is the constant that tells how readily two partners part at equilibrium. Usually ΔTm stands for the shift of the melting midpoint relative to a reference.

Where two headings read alike, the source gives them in different places.

Experiment [1] has as its target T1, Full length ERK3 (NanoLuc fusion) (Homo sapiens, UniProt Q16659).
T1 construct: Full length ERK3 was cloned into pFC32K (Promega, Madison, WI, USA); expressed in transfected cells; host or cells: HEK293T
Briefly: Cell-based NanoBRET assay (tracer displacement) in HEK293T cells. The conditions noted are these: Figure 2F; HEK293T cells, 0.25 µM Tracer K5, 2 h; averaged over two replicates. The procedure: Full length ERK3 was cloned into pFC32K (Promega, Madison, WI, USA) for the expression of an […] NanoLuc fusion, and the plasmid was transfected into HEK293T cells cultured in DMEM (Gibco) supplemented with 10% fetal bovine serum (Gibco) and penicillin/streptamycin (Gibco, Thermo Fisher Scientific, Waltham, MA, USA). NanoBRET assays were performed using protocol published previously. Briefly, after transfection and 20 h incubation, cells were harvested and subsequently resuspended in OptiMEM (Gibco). […] BRET luminescence (450 nm for donor emission and 610 nm for BRET signal) was measured using PHERAstar FSX plate reader (BMG Labtech, Ortenberg, Germany). Milli-BRET units (mBU) were calculated as a ratio between the BRET signal and the overall measured luminescence. A dose–response fitting was applied, and the corresponding IC50 values were calculated in Prism software. For the single concentration screening, the normalized BRET values were calculated from the ratio between the BRET signals of the tested inhibitor and that of the DMSO control.
(In BRET a luciferase serves as donor, and the signal depends on an acceptor being close.)

The target in experiment [2] is T2, ERK3 kinase domain (Homo sapiens, UniProt Q16659).
T2 construct: The kinase domain of ERK3 (M9-I327) was subcloned into pNIC28–Bsa4; His6 (N, cleaved yes); made in house; host or cells: E. coli (co-expressed with lambda phosphatase)
T2 sequence (Q16659 9-327): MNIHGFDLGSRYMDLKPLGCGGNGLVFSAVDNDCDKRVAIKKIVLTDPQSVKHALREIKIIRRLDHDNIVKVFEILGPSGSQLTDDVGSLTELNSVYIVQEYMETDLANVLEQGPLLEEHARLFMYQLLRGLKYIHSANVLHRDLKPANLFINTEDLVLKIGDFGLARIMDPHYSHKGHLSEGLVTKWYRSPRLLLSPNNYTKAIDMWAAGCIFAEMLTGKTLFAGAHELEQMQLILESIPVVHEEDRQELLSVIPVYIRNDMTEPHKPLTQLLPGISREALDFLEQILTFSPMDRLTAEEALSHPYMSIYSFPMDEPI
Briefly: Mass spectrometry analyses of covalent adducts (intact mass, chymotrypsin digestion). Type of experiment: binding. The conditions noted are these: kinase and inhibitor at 1:1 ratio, 30 min, room temperature. The procedure:
The protein was purified using C8 stage tips, and the intact mass was analysed using LC-ESI TOF (Agilient, Santa Clara, CA, USA) and Bioconfirm software (Agilient). Chymotrypsin digestion followed by mass spectrometry analysis was performed to identify the residue that forms a covalent bond with the inhibitors. […] The protein was subsequently precipitated by 50% […], and the resulting pellet was washed twice with cold acetone. Chymotrypsin (Sigma Aldrich) digestion was performed in 50 mM (NH4)2CO3 overnight at 37 °C. The solution after proteolysis were spotted in quadruplets onto the 4-chloro-α-cyanocinnamic acid matrix (Sigma Aldrich; 3 mg mL^−1 in TFA-acidified 50% acetonitrile), and the m/z ratios were analysed on a Thermo Fisher MALDI-LTQ Orbitrap XL spectrometer.

In experiment [3] the target is T2, ERK3 kinase domain. In words: Isothermal titration calorimetry (ITC). The format is binding. As for the experimental part:
The integrated heat of titration was calculated and fitted into an independent binding model using NanoAnalyzer software. Thermodynamic parameters, the dissociation constant (Kd), and stoichiometry (n) were an average over duplicates.

For experiment [4], the target named is T2, ERK3 kinase domain. In words: Melting temperature assay (differential scanning fluorimetry, DSF). The conditions noted are these: for ΔTm at 10 µM: Table S2. The format is binding. The procedure:
The ERK3 kinase domain at 2 µM in 10 mM HEPES pH 7.5 and 500 mM NaCl was mixed with 10 µM inhibitors and SyPRO Orange at 1:1000 dilution. After 10 min incubation at room temperature, the fluorescence signal, which increases upon the temperature-dependent unfolding of ERK3 protein, was measured using Mx3005p real-time PCR machine (Stratagene, San Diego, CA, USA). The ∆Tm shifts were calculated using protocol described previously.
A general note: DSF heats the sample and reads unfolding from a dye or from intrinsic fluorescence.

T1 sequence (Q16659 whole entry, the tested form may be a part): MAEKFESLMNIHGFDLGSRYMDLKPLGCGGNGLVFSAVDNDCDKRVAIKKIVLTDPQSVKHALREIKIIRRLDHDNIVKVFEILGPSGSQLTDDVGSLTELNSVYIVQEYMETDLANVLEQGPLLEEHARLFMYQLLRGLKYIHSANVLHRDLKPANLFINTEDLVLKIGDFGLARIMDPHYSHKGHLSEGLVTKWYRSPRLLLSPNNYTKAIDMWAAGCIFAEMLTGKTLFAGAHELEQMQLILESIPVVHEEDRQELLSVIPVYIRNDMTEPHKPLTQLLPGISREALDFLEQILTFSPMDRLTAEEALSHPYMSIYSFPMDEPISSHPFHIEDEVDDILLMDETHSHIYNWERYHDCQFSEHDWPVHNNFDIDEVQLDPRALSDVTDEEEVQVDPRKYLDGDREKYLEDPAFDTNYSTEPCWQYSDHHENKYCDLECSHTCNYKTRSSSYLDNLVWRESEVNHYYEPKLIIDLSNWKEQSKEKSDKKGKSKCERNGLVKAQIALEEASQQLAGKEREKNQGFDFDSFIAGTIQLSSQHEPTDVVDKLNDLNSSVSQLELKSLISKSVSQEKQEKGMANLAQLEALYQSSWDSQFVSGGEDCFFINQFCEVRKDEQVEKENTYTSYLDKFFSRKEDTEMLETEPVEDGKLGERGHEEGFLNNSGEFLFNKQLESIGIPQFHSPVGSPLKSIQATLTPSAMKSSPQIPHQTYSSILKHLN

`CN(C)C/C=C/C(=O)Nc1cccc(C(=O)Nc2ccc(Nc3nccc(-c4cccnc4)n3)cc2)c1` [JNK-IN-7]: in experiment [1], the half-inhibitory concentration (IC50) was 112 ± 23 nM. Besides, on ERK3 kinase domain [2], the “covalent adduct formation (intact mass shift)” value is recorded as “covalent formation, albeit only partially”.

As to `CN1CCN(c2ccc(Nc3nccc(-c4cnn5ncccc45)n3)cc2C#N)CC1` [CAF078], in experiment [1], the IC50 was found to be 9 ± 1 nM. Further, on ERK3 kinase domain [3], the “ITC dissociation constant (Kd), in words” value is “low nanomolar affinities”. Further, the Kd at ERK3 kinase domain [3] (Figure 2E, 15 °C, averaged over two replicates, read-out: ITC dissociation constant Kd) was 44 ± 26 nM. Besides, the “ΔTm (melting temperature shift)” value at ERK3 kinase domain [4] (DSF screen of 1454 kinase inhibitors) is 3.1–3.8 °C. For the same compound, the ΔTm at 10 µM at ERK3 kinase domain [4] (10 µM inhibitors, read-out: ΔTm Initial Screen) is 3.83 °C; on ERK3 kinase domain [4] (average of two repeats ± standard deviation, read-out: ΔTm Follow Up), 3.3 ± 0.2 °C.
